{"source": "patent US20030216330A1", "about": "“Parenteral, intravenous, and oral administration of oxazolidinones for treating diabetic foot infections” (PHARMACIA & UPJOHN, priority 2002, published 2003)", "key": {"[1]": {"test_system": "Staphylococcus agalactiae", "test": "Clinical outcome by baseline pathogen (MITT population)", "assay_type": "in vivo", "settings": "baseline pathogen S. agalactiae", "from_the_text": "(§1) The clinically evaluable population comprised 317 patients, most of whom were male and white with a mean age of 63 years old. Patients with critical limb ischemia were excluded, but those with osteomyelitis could be included. […] Treatment was for 7-28 days with the mean treatment duration shown below in Table 1. Patients could be switched to PO therapy at the investigator's discretion.\n(§2) The most common baseline pathogens were S. aureus (158 isolates, 31 of which were methicillin-resistant S. aureus (MRSA), coagulase-negative staphylococci (65), enterococci (60) and Streptococcus agalactiae (52). To cover methicillin-resistant S. aureus in the aminopenicillin regimen, IV vancomycin (1 g every 12 h or per dosing guidelines) was added to the amino/β-LI treated patients with MRSA isolated from the study wound. To cover possible resistant gram-negative rods in either regimen, IV aztreonam (1-2 g, IV, every 8-12 h) was permitted in both treatment arms for suspected/documented gram-negative pathogens. This is shown below in Table 2."}, "[2]": {"test_system": "baseline gram-positive pathogen", "test": "Microbiological success rate in the diabetic foot infection trial", "assay_type": "in vivo, human", "from_the_text": "as §1\n(§3) Resistance to ampicillin/sulbactam was documented in 1 S. aureus isolate."}, "diabetic foot infection [3]": {"test_system": "diabetic foot infection", "test": "Open-label, comparator-controlled trial in patients with diabetic foot infection: clinical cure", "assay_type": "in vivo, human", "from_the_text": "as §1, §2\nInfections were defined by clinical signs and symptoms and categorized as cellulites, deep soft tissue infections, infected ulcer, septic arthritis, paronychia, abscess or osteomyelitis. […] The most common types (sometimes combined) of infections were: ulcers (78%); cellulitis (45%); deep soft tissue (15%); paronychia (6%). Most patients in both arms were treated as outpatients (66%) with only oral therapy (73%) and with a single agent (87%). Clinical characteristics of the infected sites at baseline were similar in the treatment groups; most common were tenderness (97%), induration (95%), local warmth (92%), non-purulent drainage (82%) and erythema (47%).\nDebridement and other surgical procedures (short of complete resection/amputation) were allowed and wounds were off-loaded (mechanical stress on the wounded area was avoided) as needed. There were no significant differences in adverse events in the two treatment arms."}, "isolated pathogens": {"test_system": "isolated pathogens", "test": "Resistance of pathogens isolated in the trial to study medication", "settings": "at baseline or developed during the trial", "from_the_text": "as §3"}, "diabetic foot infection [4]": {"test_system": "diabetic foot infection", "test": "Example 3: parenteral treatment of a human with a diabetic foot infection", "assay_type": "in vivo", "settings": "600 mg parenteral, two times daily for 7-28 days; person", "experimental": "A 70 kilo […] with a history of diabetes and infected foot ulcerations, also known as diabetic foot, is treated with a parenteral preparation of 600 mg (S)-N-[[3-[3-fluoro-4-[4-(morpholinyl)[…]]-2-oxo-5-oxazolidinyl]methyl]acetamide. The preparation is administered two times daily for 7-28 days. The patient is evaluated by clinical observations and with x-rays for osteomyelitis, including with a “probe-to bone” test and a bone biopsy if the patient has an open wound."}, "[5]": {"test_system": "aerobic gram positive bacteria", "settings": "including streptococci, MRSA and VRE; cited from earlier work"}}}
{"smiles": "CC(=O)NC[C@H]1CN(c2ccc(N3CCOCC3)c(F)c2)C(=O)O1", "note": "[Linezolid, (S)-N-[[3-[3-fluoro-4-(4-morpholinyl)phenyl]-2-oxo-5-oxazolidinyl]methyl]acetamide]", "values": [{"measurement": "clinical cure rate versus comparator", "setting": "[1]", "result": "significantly higher clinical cure rate"}, {"measurement": "microbiological success rates", "setting": "[2]; microbiologically evaluable (ME) patients", "result": 72.2, "unit": "%"}, {"measurement": "Microbiol. Efficacy (% Efficacy of the Evaluatable Population)", "setting": "[2]; microbiologically evaluable population, 212 patients", "result": 72, "unit": "%"}, {"measurement": "Clinical Efficacy (% Efficacy of the Evaluatable Population)", "setting": "diabetic foot infection [3]; clinically evaluable population, 317 patients", "result": 83, "unit": "%"}, {"measurement": "clinical outcome versus amino/β-LI", "setting": "diabetic foot infection [3]; infected ulcers and non-osteomyelitis cases", "result": "clinically superior"}, {"measurement": "clinically cured patients", "setting": "diabetic foot infection [3]; infected ulcers, FIG. 2", "result": 81.4, "unit": "%"}, {"measurement": "Clinical cure rates", "setting": "diabetic foot infection [3]; intent-to-treat (ITT) and clinically evaluable (CE) populations, FIG. 1", "result": "comparable"}, {"measurement": "overall clinical and micro-biological outcomes versus amino/β-LI", "setting": "diabetic foot infection [3]; mostly given alone, PO, to outpatients", "result": "at least as effective overall as amino/β-LI"}, {"measurement": "clinical cure rate", "setting": "diabetic foot infection [3]; patients with osteomyelitis (n=60)", "result": 61.0, "unit": "%"}, {"measurement": "clinical cure rate", "setting": "diabetic foot infection [3]; patients without osteomyelitis", "result": 86, "unit": "%"}, {"measurement": "resistance of isolated pathogens to the study drug", "setting": "isolated pathogens", "result": "None of the isolated pathogens was resistant"}, {"measurement": "clinical observation of the ulcerated area after the course of treatment", "setting": "diabetic foot infection [4]", "result": "tissue destruction in the ulcerated area has visibly ceased and tissue repair has begun"}, {"measurement": "antibacterial activity", "setting": "[5]", "result": "active against almost all aerobic gram positive bacteria"}]}
